The test concerns human σ1 receptor and human μ-opioid receptor. Briefly: Human σ1 receptor and human μ-opioid receptor radioligand assays (μ and σ1 dual binding). The arrangement: key to μ and σ1 dual binding: +: Both Ki-μ and Ki-σ1>=500 nM; ++: One Ki<500 nM while the other Ki is >=500 nM; +++: Both Ki-μ and Ki-σ1<500 nM; ++++: Both Ki-μ and K1-σ1<100 nM. Particulars: joint class for Ki at σ1 ([3H](+)-pentazocine, transfected HEK-293 membranes) and Ki at μ-opioid ([3H]-DAMGO, transfected CHO-K1 membranes).

As to `CCC(=O)N(CCN1CC[C@H](N(C)Cc2ccccc2)C1)c1ccccc1` [Example 3, (S)-N-(2-(3-(benzyl(methyl)amino)pyrrolidin-1-yl)ethyl)-N-phenylpropionamide], the “μ and σ1 dual binding” value was “++”. Turning to `CCC(=O)N(CCN1CCC(N(C)Cc2ccccc2)C1)c1cccc(C(F)(F)F)n1` (centres unmarked) [Example 6], the “μ and σ1 dual binding” value is “++”. Still for that read-out and setting: the entry for `CCC(=O)N(CCN1CC(N(C)Cc2ccccc2)C1)c1cccc(C(F)(F)F)n1` [Example 9, N-(2-(3-(benzyl(methyl)amino)azetidin-1-yl)ethyl)-N-(6-(trifluoromethyl)pyridin-2-yl)propionamide] is “++”. `CCOCCN(C)C1CCN(CCN(C(=O)CC)c2cccc(C(F)(F)F)n2)C1` (centres unmarked) [Example 17] returned a Ki of no less than 0.5 µM. On to `CCOCCN(C)C1CCN(CCN(C(=O)CC)c2cccc(C(F)(F)F)n2)C1` (centres unmarked) [Example 16], for which the Ki was no less than 0.5 µM. In the case of `CCC(=O)N(CCN1CCC(N(C)Cc2ccccc2)C1)c1ncccc1F` (centres unmarked) [Example 1, N-(2-(3-(Benzyl(methyl)amino)pyrrolidin-1-yl)ethyl)-N-(3-fluoropyridin-2-yl)propionamide], the “μ and σ1 dual binding” value is recorded as “++”. With `CCC(=O)N(CCN1CCC(N(C)Cc2ccccc2)C1)c1ccccc1` (centres unmarked) [Example 2, N-(2-(3-(benzyl(methyl)amino)pyrrolidin-1-yl)ethyl)-N-phenylpropionamide], the Ki was less than 0.5 µM. `CCC(=O)N(CCN1CCC(N(C)Cc2ccccc2)C1)c1cccc(C(F)(F)F)n1` (centres unmarked) [Example 5, N-(2-(3-(benzyl(methyl)amino)pyrrolidin-1-yl)ethyl)-N-(6-(trifluoromethyl)pyridin-2-yl)propionamide] had a Ki of no less than 0.5 µM.

The compound `CCC(=O)N(CCN1CCC(N(C)CC(C)C)C1)c1cccc(C(F)(F)F)n1` (centres unmarked) [Example 12, N-(2-(3-(isobutyl(methyl)amino)pyrrolidin-1-yl)ethyl)-N-(6-(trifluoromethyl)pyridin-2-yl)propionamide] returned a Ki of no less than 0.5 µM.

In the case of `CCC(=O)N(CCN1CC[C@@H](N(C)Cc2ccccc2)C1)c1ccccc1` [Example 4, (R)-N-(2-(3-(benzyl(methyl)amino)pyrrolidin-1-yl)ethyl)-N-phenylpropionamide], the Ki was less than 0.5 µM. With `CCC(=O)N(CCN1CC2CN(CC(C)C)CC2C1)c1cccc(C(F)(F)F)n1` (centres unmarked) [Example 18, N-(2-(5-isobutylhexahydropyrrolo[3,4-c]pyrrol-2(1H)-yl)ethyl)-N-(6-(trifluoromethyl)pyridin-2-yl)propionamide], the “μ and σ1 dual binding” value is listed as “++”.

The record behind these values is patent publication US10351549B2, “Amide derivatives having multimodal activity against pain” (priority 2015, dated 2019).
